Test results reported in ChEMBL document CHEMBL1156193, “Discovery of a long-acting, peripherally selective inhibitor of catechol-O-methyltransferase” (2010).

How the values were obtained:
[1] = target: T1, Catechol O-methyltransferase (Rattus norvegicus) (UniProt P22734); experiment: Inhibition of COMT in rat liver homogenates assessed as metanephrine formation at 3 uM relative to control; values are per cent of control
T1 sequence (whole entry): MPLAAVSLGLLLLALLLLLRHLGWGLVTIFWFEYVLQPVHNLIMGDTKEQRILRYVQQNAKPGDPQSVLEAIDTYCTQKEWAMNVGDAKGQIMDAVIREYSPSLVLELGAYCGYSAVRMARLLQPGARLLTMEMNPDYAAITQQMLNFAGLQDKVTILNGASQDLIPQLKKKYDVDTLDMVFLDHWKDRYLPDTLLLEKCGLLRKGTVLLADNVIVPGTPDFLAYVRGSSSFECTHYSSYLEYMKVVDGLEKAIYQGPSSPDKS

[2] = Cytotoxicity against mouse Neuro2a cells assessed as cell viability at 30 uM after 24 hrs; assay type: functional; settings: N2a, read-out: Activity
Rattus norvegicus [3] = experiment: Inhibition of COMT in Wistar rat liver homogenates assessed as metanephrine formation at 3 mg/kg, po measured after 3 hrs relative to control; values are per cent of control
Mus musculus [4] = experiment: Inhibition of COMT in NMRI mouse liver homogenates assessed as metanephrine formation at 30 mg/kg, po measured after 6 hrs relative to control; values are per cent of control
[5] = target: T1, Catechol O-methyltransferase (Rattus norvegicus); experiment: Inhibition of COMT in rat liver homogenates assessed as metanephrine formation at 30 uM relative to control; values are per cent of control
Mus musculus [6] = experiment: Inhibition of COMT in NMRI mouse liver homogenates assessed as metanephrine formation at 3 mg/kg, po measured after 3 hrs relative to control; values are per cent of control
Rattus norvegicus [7] = experiment: Inhibition of COMT in Wistar rat brain homogenates assessed as metanephrine formation at 3 mg/kg, po measured after 3 hrs relative to control; values are per cent of control

Cn1nccc1-c1cc(O)c(O)c([N+](=O)[O-])c1
residual activity [1]: 1.1%

Cc1ccc(-c2noc(-c3cc(O)c(O)c([N+](=O)[O-])c3)n2)c(N2CCOCC2)n1
viability at 30 µM [2]: 43.8%

O=[N+]([O-])c1cc(-c2nc(-c3ccnc(F)c3)no2)cc(O)c1O
viability at 30 µM [2]: 25%

Cc1c(-c2noc(-c3cc(O)c(O)c([N+](=O)[O-])c3)n2)c(C(F)(F)F)cc(-c2ccccc2)[n+]1[O-]
viability at 30 µM [2]: 26.6%
level, % of control at 3 mg/kg (Rattus norvegicus [3]): 24.3%

O=[N+]([O-])c1cc(-c2ccnn2-c2ccccc2)cc(O)c1O
residual activity [1]: 0%
level, % of control at 30 mg/kg (Mus musculus [4]): 60.8%

Cc1nc(-c2cc(O)c(O)c([N+](=O)[O-])c2)c(-c2ccccc2)o1
level, % of control at 30 mg/kg (Mus musculus [4]): 84.1%

Oc1ccc(-c2ccnn2-c2ccc(C(F)(F)F)cc2)c(F)c1O
residual activity [5]: 32.3%

Cc1ccc(-n2nccc2-c2ccc(O)c(O)c2)cc1
residual activity [5]: 41.2%

O=C(O)c1cc(-c2ccnn2-c2cccc(Cl)c2)cc(O)c1O
residual activity [5]: 24.1%

O=[N+]([O-])c1cc(-c2nc(-c3ccc[n+]([O-])c3Cl)no2)cc(O)c1O
viability at 30 µM [2]: 93.7%
level, % of control at 3 mg/kg (Rattus norvegicus [3]): 71.6%

CN1CCN(C(=O)c2ccc(-c3noc(-c4cc(O)c(O)c([N+](=O)[O-])c4)n3)cc2)CC1
level, % of control at 3 mg/kg (Mus musculus [6]): 74%
viability at 30 µM [2]: 90.7%

CC(=O)N1CCN(c2noc(-c3cc(O)c(O)c([N+](=O)[O-])c3)n2)CC1
level, % of control at 3 mg/kg (Mus musculus [6]): 68.2%
viability at 30 µM [2]: 104%

Cc1nc(-c2noc(-c3cc(O)c(O)c([N+](=O)[O-])c3)n2)cs1
level, % of control at 3 mg/kg (Mus musculus [6]): 22.9%
viability at 30 µM [2]: 58.7%

Cc1cc(-c2noc(-c3cc(O)c(O)c([N+](=O)[O-])c3)n2)on1
viability at 30 µM [2]: 27.6%

N#Cc1ccc(-n2nccc2-c2cc(O)c(O)c([N+](=O)[O-])c2)cc1
residual activity [1]: 0.3%
level, % of control at 30 mg/kg (Mus musculus [4]): 61.1%

O=[N+]([O-])c1cc(-c2nc(-c3c[n+]([O-])ccc3C(F)(F)F)no2)cc(O)c1O
viability at 30 µM [2]: 93.4%
level, % of control at 3 mg/kg (Rattus norvegicus [3]): 23.6%

Cc1cc(C(F)(F)F)c(-c2noc(-c3cc(O)c(O)c([N+](=O)[O-])c3)n2)c(C)[n+]1[O-]
viability at 30 µM [2]: 37.2%
level, % of control at 3 mg/kg (Rattus norvegicus [3]): 1.3%

Cc1ccc(-c2noc(-c3cc(O)c(O)c([N+](=O)[O-])c3)n2)c(Br)[n+]1[O-]
viability at 30 µM [2]: 76.3%
level, % of control at 3 mg/kg (Rattus norvegicus [3]): 33.7%

O=[N+]([O-])c1cc(-c2c(-c3ccccc3)cnn2-c2cccc(Cl)c2)cc(O)c1O
residual activity [1]: 68.6%

O=[N+]([O-])c1cc(-c2nc(-c3cnccn3)no2)cc(O)c1O
viability at 30 µM [2]: 60.5%

O=[N+]([O-])c1cc(-c2nc(-c3ccccn3)no2)cc(O)c1O
viability at 30 µM [2]: 70.5%

O=[N+]([O-])c1cc(-c2nc(-c3ccc[n+]([O-])c3C(F)(F)F)no2)cc(O)c1O
viability at 30 µM [2]: 96.4%
level, % of control at 3 mg/kg (Rattus norvegicus [3]): 5.5%

Cc1ccc(C(=O)n2ncc(-c3ccccc3)c2-c2cc(O)c(O)c([N+](=O)[O-])c2)cc1
residual activity [1]: 2.8%
level, % of control at 30 mg/kg (Mus musculus [4]): 89.3%

O=[N+]([O-])c1cc(-c2nc(-c3ccc(C(F)(F)F)[n+]([O-])c3)no2)cc(O)c1O
viability at 30 µM [2]: 87%
level, % of control at 3 mg/kg (Rattus norvegicus [3]): 34.4%

Cc1c(C)c(C)[n+]([O-])c(Cl)c1-c1noc(-c2cc(O)c(O)c([N+](=O)[O-])c2)n1
viability at 30 µM [2]: 95.1%
level, % of control at 3 mg/kg (Rattus norvegicus [3]): 7.9%

O=[N+]([O-])c1cc(-c2nc(N3CCN(c4ccccn4)CC3)no2)cc(O)c1O
level, % of control at 3 mg/kg (Mus musculus [6]): 32.2%
viability at 30 µM [2]: 24.6%

O=[N+]([O-])c1cc(-c2nc(-c3ccc(Br)cc3)no2)cc(O)c1O
level, % of control at 3 mg/kg (Mus musculus [6]): 12.7%
viability at 30 µM [2]: 12.2%

O=[N+]([O-])c1cc(-c2nc(-c3cnccc3C(F)(F)F)no2)cc(O)c1O
viability at 30 µM [2]: 14.7%

O=[N+]([O-])c1cc(-c2nc(-c3ccccc3)no2)cc(O)c1O
level, % of control at 3 mg/kg (Mus musculus [6]): 20.6%
viability at 30 µM [2]: 43.1%
level, % of control at 3 mg/kg (Rattus norvegicus [7]): 71.7%
level, % of control at 3 mg/kg (Rattus norvegicus [3]): 20.6%
level, % of control at 30 mg/kg (Mus musculus [4]): 7%

Cc1ccc(-c2noc(-c3cc(O)c(O)c([N+](=O)[O-])c3)n2)c(Cl)n1
viability at 30 µM [2]: 53.1%

O=C(Cc1ccccc1)c1cc(O)c(O)c([N+](=O)[O-])c1 [NEBICAPONE]
level, % of control at 30 mg/kg (Mus musculus [4]): 85.7%

CN1CCN(c2noc(-c3cc(O)c(O)c([N+](=O)[O-])c3)n2)CC1
level, % of control at 3 mg/kg (Mus musculus [6]): 56.8%
viability at 30 µM [2]: 90.2%

O=[N+]([O-])c1cc(-c2nc(-c3cccs3)no2)cc(O)c1O
level, % of control at 3 mg/kg (Mus musculus [6]): 29.6%
viability at 30 µM [2]: 19.3%

NC(=O)c1ccc(-c2noc(-c3cc(O)c(O)c([N+](=O)[O-])c3)n2)cc1
level, % of control at 3 mg/kg (Mus musculus [6]): 79.2%
viability at 30 µM [2]: 91.2%

Oc1cc(-c2ccnn2-c2ccccc2)cc(O)c1O
residual activity [5]: 0.8%

O=[N+]([O-])c1cc(-c2nc(-c3cccnc3)no2)cc(O)c1O
viability at 30 µM [2]: 26.7%

Cc1[nH]nc(-c2ccc(O)c(O)c2O)c1-c1ccc(Cl)cc1
residual activity [1]: 15.6%

Cc1c(-c2noc(-c3cc(O)c(O)c([N+](=O)[O-])c3)n2)ccc(C(F)(F)F)[n+]1[O-]
viability at 30 µM [2]: 62.2%
level, % of control at 3 mg/kg (Rattus norvegicus [3]): 13.9%

O=[N+]([O-])c1cc(-c2nnc(-c3ccccc3)o2)cc(O)c1O
level, % of control at 3 mg/kg (Rattus norvegicus [7]): 87.9%
level, % of control at 3 mg/kg (Rattus norvegicus [3]): 67.8%
level, % of control at 30 mg/kg (Mus musculus [4]): 47.3%

Cc1cc(C)[n+]([O-])c(Cl)c1-c1noc(-c2cc(O)c(O)c([N+](=O)[O-])c2)n1
viability at 30 µM [2]: 92.3%
level, % of control at 3 mg/kg (Rattus norvegicus [3]): 13.9%

O=[N+]([O-])c1cc(-c2ccnn2-c2cccc(Cl)c2)cc(O)c1O
residual activity [1]: 0%

O=[N+]([O-])c1cc(-c2nc(-c3ccc(Cl)c(Cl)c3)no2)cc(O)c1O
level, % of control at 3 mg/kg (Mus musculus [6]): 8.8%
viability at 30 µM [2]: 37.7%

O=[N+]([O-])c1cc(-c2ccn[nH]2)cc(O)c1O
residual activity [1]: 0%

Cc1ccc(-c2noc(-c3cc(O)c(O)c([N+](=O)[O-])c3)n2)c(Cl)[n+]1[O-]
viability at 30 µM [2]: 100%
level, % of control at 3 mg/kg (Rattus norvegicus [3]): 31.6%

Oc1ccc(-c2ccnn2-c2ccccc2)c(O)c1O
residual activity [5]: 26.8%

O=[N+]([O-])c1cc(-c2nc(-c3ccncc3)no2)cc(O)c1O
viability at 30 µM [2]: 27.3%

Cc1ccc(-n2nccc2-c2cc(O)c(O)c([N+](=O)[O-])c2)cc1
residual activity [1]: 0%

O=[N+]([O-])c1cc(-c2ccnc(-c3ccccc3)n2)cc(O)c1O
level, % of control at 30 mg/kg (Mus musculus [4]): 44.8%

O=[N+]([O-])c1cc(-c2nc(-c3ccc(F)cc3)no2)cc(O)c1O
level, % of control at 3 mg/kg (Mus musculus [6]): 12.7%
viability at 30 µM [2]: 29.5%

O=[N+]([O-])c1cc(-c2nc(-c3ccc[n+]([O-])c3)no2)cc(O)c1O
viability at 30 µM [2]: 93.8%
level, % of control at 3 mg/kg (Rattus norvegicus [3]): 77%

O=[N+]([O-])c1cc(-c2noc(-c3ccccc3)n2)cc(O)c1O
level, % of control at 3 mg/kg (Rattus norvegicus [7]): 55.6%
level, % of control at 3 mg/kg (Rattus norvegicus [3]): 51.9%
level, % of control at 30 mg/kg (Mus musculus [4]): 24.4%

Nc1nc(-c2cc(O)c(O)c([N+](=O)[O-])c2)c(-c2ccccc2)s1
level, % of control at 30 mg/kg (Mus musculus [4]): 77.4%

O=[N+]([O-])c1cc(-c2cncn2-c2ccccc2)cc(O)c1O
level, % of control at 30 mg/kg (Mus musculus [4]): 109%

O=[N+]([O-])c1cc(-c2nc(N3CCOCC3)no2)cc(O)c1O
level, % of control at 3 mg/kg (Mus musculus [6]): 45.8%
viability at 30 µM [2]: 67.5%
